In test [1] the target is T1, N1303K-CFTR (Homo sapiens, UniProt P13569, N1303K).
T1 construct: expressed in transfected cells
In words: Short-circuit current in gene-edited 16HBE14o- cells expressing N1303K-CFTR (16HBE-N1303Kge). The test is classed as cell-based. The settings on record: 16HBE-N1303Kge cells; 20 µM compound after 20 µM forskolin and 5 µM VX-770. As for the experimental part:
(§1) To test the efficacy of new co-potentiators in human airway cell models, short-circuit current was measured in 16HBE14o- human airway epithelial cells in which the endogenous CFTR gene was edited to contain the N1303K mutation (16HBE-N1303Kge[21]) and in primary cultures of human bronchial epithelial cells from a N1303K homozygous CF subject. Addition of forskolin and then VX-770 to 16HBE-N1303Kge cells gave a limited response (Fig. 6A). Subsequent addition of CP-A061 or CP-D123 produced CFTRinh-172-inhibitable responses of ~10 μA/cm^2, ~6-fold greater that that produced by VX-770 alone. Increased short-circuit current was also found for these co-potentiators in the primary human bronchial epithelial cell cultures (Fig. 6B).
(§2) Figure 6 N1303K-CFTR activity in human airway epithelial cell cultures. (A) Short-circuit current in gene-edited 16HBE14o- cells expressing N1303K-CFTR. Concentrations: 20 µM amiloride, 20 µM forskolin, 5 µM VX-770, 20 µM CP-A061 and CP-D123, and 10 µM CFTRinh-172. Representative original curves (left and center) and summary of changes in current (∆Isc) (right). Mean ± S.E.M., n = 3, *P < 0.05). (B) Short-circuit current in primary cultures of human bronchial epithelial cells from a homozygous N1303K-CFTR CF subject. […]
(§3) Short-circuit current was measured on cells cultured on Snapwell clear permeable supports (Corning) as described[10],[11]. […]

The target in test [2] is T1, N1303K-CFTR. In words: Short-circuit current in primary human bronchial epithelial cell cultures from a N1303K homozygous CF subject. The test is classed as cell-based. How it is done: as §1, §2, §3
The target of test [3] is T2, W1282X-CFTR (Homo sapiens, UniProt P13569).
T2 construct: expressed in transfected cells
On the set-up: method as in PMID 27895116, PMID 29903467. Particulars: transfected FRT cells expressing CFTR1281 (truncation product of W1282X-CFTR); cited from earlier work.

In test [4] the test system is G551D-CFTR. On the set-up: method as in PMID 29903467. The settings on record: previously showed; cited from earlier work.
In test [5] the target is T1, N1303K-CFTR. On the set-up: method as in PMID 27895116, PMID 29903467. The settings on record: transfected FRT cells expressing N1303K-CFTR; cited from earlier work.
Test [6] addresses T3, V520F-CFTR (Homo sapiens, UniProt P13569, V520F).
T3 construct: expressed in transfected cells; host or cells: Fischer rat thyroid (FRT) cells; gift from Drs; Andras Rab and Jeong Hong (Emory University)
In words: Short-circuit current in FRT cells expressing V520F-CFTR. The test is classed as cell-based. The settings on record: 20 μM forskolin, 5 µM VX-770, 20 µM ASP-11. As for the experimental part:
As shown in Fig. 1C and summarized in Fig. 2, ASP-11 acted in synergy with VX-770 to increase chloride current in FRT cells expressing the NBD2 mutations I1234del- and Q1313X-CFTR by ~3–9-fold compared to VX-770. I1234del- and Q1313X-CFTR-expressing cells were also treated with VX-809 for 24 hours (to consider the effect of available CFTR therapeutics) with 2–3-fold greater currents observed.
Figure 2 Summary of short-circuit current responses to modulators for CFTR mutants in transfected FRT cells. Responses to indicated CFTR mutants with 20 μM forskolin, 5 µM VX-770, 20 µM ASP-11 (with or without 3 µM VX-809 overnight). For reference, data shown for cells expressing wild type CFTR. Mean ± S.E.M., n = 3.
Short-circuit current was measured on cells cultured on Snapwell clear permeable supports (Corning) as described[10],[11]. Hemichambers were connected to a DVC-1000 voltage clamp (World Precision Instruments Inc., Sarasota, FL) via Ag/AgCl electrodes and 3 M KCl agar bridges for recording of the short-circuit current. For human airway epithelial cells, symmetrical HCO3^−-buffered solutions (in mM: 120 NaCl, 5 KCl, 1 MgCl2, 1 CaCl2, 5 Hepes, 25 NaHCO3, 10 glucose, pH 7.4) for basolateral and apical side were used. […]

T1 sequence (P13569 whole entry N1303K): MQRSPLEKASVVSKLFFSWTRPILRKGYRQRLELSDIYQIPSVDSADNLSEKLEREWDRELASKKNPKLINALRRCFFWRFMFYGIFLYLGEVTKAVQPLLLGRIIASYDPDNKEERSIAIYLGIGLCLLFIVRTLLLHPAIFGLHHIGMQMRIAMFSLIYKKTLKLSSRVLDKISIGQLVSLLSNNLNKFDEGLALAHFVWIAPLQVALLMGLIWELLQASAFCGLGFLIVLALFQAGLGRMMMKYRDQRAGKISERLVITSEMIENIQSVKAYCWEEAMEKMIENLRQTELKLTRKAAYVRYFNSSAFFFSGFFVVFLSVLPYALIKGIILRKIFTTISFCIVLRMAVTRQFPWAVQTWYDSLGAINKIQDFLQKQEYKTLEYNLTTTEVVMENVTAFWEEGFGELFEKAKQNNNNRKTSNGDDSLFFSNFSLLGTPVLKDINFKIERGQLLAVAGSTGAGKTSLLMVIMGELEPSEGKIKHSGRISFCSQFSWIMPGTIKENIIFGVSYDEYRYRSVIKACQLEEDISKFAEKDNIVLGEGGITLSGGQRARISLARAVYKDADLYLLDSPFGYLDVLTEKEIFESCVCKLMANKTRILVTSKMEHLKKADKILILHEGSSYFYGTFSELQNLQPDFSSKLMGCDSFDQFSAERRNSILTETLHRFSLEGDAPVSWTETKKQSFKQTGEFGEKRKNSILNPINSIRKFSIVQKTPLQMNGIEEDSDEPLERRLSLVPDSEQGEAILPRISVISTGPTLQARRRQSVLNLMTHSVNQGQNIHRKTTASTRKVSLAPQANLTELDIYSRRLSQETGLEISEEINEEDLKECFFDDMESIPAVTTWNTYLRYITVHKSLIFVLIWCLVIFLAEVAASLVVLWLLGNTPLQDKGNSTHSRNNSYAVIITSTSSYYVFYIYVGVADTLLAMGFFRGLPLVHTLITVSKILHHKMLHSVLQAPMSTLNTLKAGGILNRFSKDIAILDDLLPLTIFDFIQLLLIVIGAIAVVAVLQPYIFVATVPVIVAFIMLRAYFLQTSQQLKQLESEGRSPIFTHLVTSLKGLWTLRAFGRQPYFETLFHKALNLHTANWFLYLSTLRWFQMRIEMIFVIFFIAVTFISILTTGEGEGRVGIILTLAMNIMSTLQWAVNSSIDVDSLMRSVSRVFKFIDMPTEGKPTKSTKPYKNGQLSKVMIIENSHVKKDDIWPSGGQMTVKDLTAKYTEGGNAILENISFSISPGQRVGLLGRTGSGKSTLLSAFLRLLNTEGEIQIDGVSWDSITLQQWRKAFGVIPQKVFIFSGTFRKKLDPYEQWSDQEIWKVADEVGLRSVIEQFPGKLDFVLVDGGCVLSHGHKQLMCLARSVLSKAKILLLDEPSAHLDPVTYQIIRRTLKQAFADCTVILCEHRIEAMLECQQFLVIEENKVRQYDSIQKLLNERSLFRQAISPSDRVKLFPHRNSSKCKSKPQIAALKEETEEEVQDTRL
T2 sequence (P13569 1-1281 limits assumed): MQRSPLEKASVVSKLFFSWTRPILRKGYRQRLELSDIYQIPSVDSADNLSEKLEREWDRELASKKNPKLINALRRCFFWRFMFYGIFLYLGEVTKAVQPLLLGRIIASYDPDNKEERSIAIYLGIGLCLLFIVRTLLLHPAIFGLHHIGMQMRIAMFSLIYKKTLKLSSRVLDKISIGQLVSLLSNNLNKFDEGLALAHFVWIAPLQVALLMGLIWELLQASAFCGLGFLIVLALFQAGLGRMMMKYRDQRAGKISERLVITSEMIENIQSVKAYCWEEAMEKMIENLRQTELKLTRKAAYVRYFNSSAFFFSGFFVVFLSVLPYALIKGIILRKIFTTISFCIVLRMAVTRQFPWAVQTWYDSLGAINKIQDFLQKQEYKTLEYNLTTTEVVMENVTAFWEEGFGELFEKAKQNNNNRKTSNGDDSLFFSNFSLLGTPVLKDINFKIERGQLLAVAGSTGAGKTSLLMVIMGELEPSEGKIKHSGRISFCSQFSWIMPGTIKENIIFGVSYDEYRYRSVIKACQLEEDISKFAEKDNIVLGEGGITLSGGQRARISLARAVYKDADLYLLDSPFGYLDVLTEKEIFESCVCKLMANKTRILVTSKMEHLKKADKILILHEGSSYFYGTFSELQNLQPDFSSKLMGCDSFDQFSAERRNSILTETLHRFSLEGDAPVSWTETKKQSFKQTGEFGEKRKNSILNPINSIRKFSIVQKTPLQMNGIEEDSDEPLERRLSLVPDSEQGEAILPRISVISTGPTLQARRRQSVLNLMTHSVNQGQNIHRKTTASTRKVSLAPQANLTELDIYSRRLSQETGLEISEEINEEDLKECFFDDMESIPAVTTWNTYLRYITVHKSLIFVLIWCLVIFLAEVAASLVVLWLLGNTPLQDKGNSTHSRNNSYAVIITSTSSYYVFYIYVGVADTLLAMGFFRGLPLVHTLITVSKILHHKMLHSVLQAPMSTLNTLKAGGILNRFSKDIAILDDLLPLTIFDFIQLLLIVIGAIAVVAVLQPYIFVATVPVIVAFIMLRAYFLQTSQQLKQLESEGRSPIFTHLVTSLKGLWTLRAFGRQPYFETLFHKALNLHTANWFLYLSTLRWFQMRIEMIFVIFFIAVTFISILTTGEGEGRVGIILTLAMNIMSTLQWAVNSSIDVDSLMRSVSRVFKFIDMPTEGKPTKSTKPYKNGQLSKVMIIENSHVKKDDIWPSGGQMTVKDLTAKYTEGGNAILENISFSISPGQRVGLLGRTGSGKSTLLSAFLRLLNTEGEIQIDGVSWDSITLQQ
T3 sequence (P13569 whole entry V520F): as the sequence (P13569 whole entry N1303K) above, with V520F, K1303N counted along it

With `COc1ccc2[nH]c3c(c2c1)CCNC31CCN(Cc2ccc(F)cc2F)CC1` [Compound A061], in test [1], the “CFTRinh-172-inhibitable short-circuit current response” value is given as ~ 10 μA/cm^2 and the “response relative to that produced by VX-770 alone” value is ~ 6 fold. In addition, the “current as equivalent of wildtype CFTR activity” value in test [2] (estimate based on similarly cultured non-CF and CF human airway epithelial cell cultures) is on record as ~ 20%. In test [2] (primary human bronchial cell cultures, homozygous N1303K-CFTR subject, 20 µM compound after forskolin and 5 µM VX-770), the CFTRinh-172-inhibitable current is given as ~ 2.5 μA/cm^2.

With `CCCCn1cc(S(=O)(=O)Nc2ccc(CC)cc2)c2cccnc21` [ASP-11], the “increase in chloride current over that produced by a high concentration of VX-770” value in test [3] and in test [5] was ~ 8 fold each time. Besides, the “activation of G551D-CFTR” value in test [4] is on record as “activates G551D-CFTR”. For the same compound, in test [6], the “ASP-11 effect on short-circuit current” value is “absence of ASP-11 effect”.

The values above are taken from PMC6881293, “Nanomolar-potency ‘co-potentiator’ therapy for cystic fibrosis caused by a defined subset of minimal function CFTR mutants” (Scientific Reports, 2019).
